Among the data in a melting point compilation (Tetko et al.; mined from patent text by program, amines drawn as free bases though some values may be those of a salt) are melting point values, retold here.

In general, melting point refers to the temperature, or range, at which the solid turns liquid.

A value given as a limit tells only on which side of the number the result lay.

Turning to `c1cnc(N2CCN(Cc3ccc4c(c3)Cc3c(-c5ccsc5)n[nH]c3-4)CC2)nc1`, the melting point is 245 to 247 °C.
With `COc1cc(N)c(Cl)cc1C(=O)NCC1CCN(CCCCCCSc2ccccc2)CC1` the figure was 68 to 70 °C.
The value for `Cc1ncnc(-c2ccncc2)n1` was 99 to 102 °C; that for `CC(=NO)C12CCCC(C1)C1CCC2C1` (configuration not stated) was 157 to 158 °C.
The value for `Cc1cc2ncc(Nc3ccc(Br)cc3)nc2cc1C` was 235 °C; that for `CC(=O)OC1CSC(Oc2cccc(C#N)c2)C(OC(C)=O)C1OC(C)=O` (configuration not stated) was 148 to 151 °C; that for `CCCCc1ncc(/C=C(\Cc2ccc(OC)cc2)c2nnn[nH]2)n1Cc1ccccc1Cl` was 168 to 171 °C.
In turn, `Cc1cc(C)cc(C(=O)P2(=O)Oc3ccccc3-c3ccccc32)c1` (configuration not stated) had a melting point of 120 to 124 °C.
In the case of `C=CCOC(=O)CC(=O)NC1C(=O)N2C1SC(C)(C)C2C(=O)OCC=C` (configuration not stated), the melting point was in the range of 59 to 60 °C.
With `CC1(C)CSCC(=O)N1` the figure was 151 to 152 °C; with `Cn1c(-c2ccc3ccccc3c2)nnc1S(C)=O` (configuration not stated), 224 to 226 °C.
As to `CCCCNC(=O)NS(=O)(=O)c1ccccc1S(=O)(=O)N(C)C(F)(F)C(F)F`, the melting point fell in the range of 146 to 152 °C.
As for `OCCCc1ccc2c(c1)Cc1cc(CCCO)ccc1-2`, the melting point fell in the range of 160 to 180 °C.
The value for `CC(=O)c1c(-c2ccc(F)cc2)nn(CC2CC2)c(=O)c1Nc1cccc2cccnc12` was 150 to 151 °C.
With `CC1(C)CC(=O)c2c(O)cc(O)cc2C1` the figure was 115 to 116 °C; with `O=C1C=C(NC(=O)C(=O)c2cn(Cc3cccc(C(F)(F)F)c3)c3cc([N+](=O)[O-])ccc23)CO1`, 279 to 281 °C.
In turn, `CC(CCNC1=Nc2ccc(Br)c3cccc1c23)n1ccnc1` (configuration not stated) came in with a melting point of 240 to 241 °C.
With `Cc1ccc(S(=O)(=O)OCC2COc3ccccc3C2)cc1` (configuration not stated), the melting point lay in the range of 83 to 84 °C.
The value for `Clc1cccc(-c2nc(NC3CCCCC3)c3ccccc3n2)n1` was 218 to 221 °C; that for `Cc1cccc2c1nc(-c1ccccc1Cl)n2CC(C)O` (configuration not stated) was 164 to 165 °C.
The value for `CNC(=O)C1(CCCCCCCCO)CC2=C(C1)C(=O)C(OC)=C(OC)C2=O` was 120 to 123 °C; that for `N#CC1(C2(O)CCCCC2)Cc2cc3occc3cc21` (configuration not stated) was 154 to 158 °C; that for `COc1c(NC(=O)Nc2ccc(-c3ccc(CN4CCOCC4)nc3)c3ccccc23)cc(C(C)(C)C)cc1NS(=O)(=O)c1ccccc1` was 206 to 207 °C.
The value for `CN(C)S(=O)(=O)c1ccc(Br)cc1` was 90 to 92 °C.
In the case of `CC(=O)OCSc1c(F)cc(-c2c(-c3ccccc3)noc2C)cc1F`, the melting point was 130 °C.
`CCCc1ccc(NC(C)=O)cn1`: the melting point fell in the range of 122 to 124 °C.
With `COc1ccccc1OCC(O)CN1CCC(=O)CC1` (configuration not stated) the figure was 77 to 78 °C; with `COc1ccccc1C(=O)c1c(SC)nn(-c2c(Cl)cc(Cl)cc2Cl)c1N`, 200 to 202 °C.
The value for `COC(=O)c1cccc(S(=O)(=O)Cc2c(O)ccc3c2CCCC3=O)c1` was 230 to 232 °C; that for `CC1CCN(Cc2cccc(OCCCNc3nc(N)nn3C)c2)CC1` was 133 to 134 °C; that for `Cc1c(Cl)c(=O)n2c3c(cc(C(O)(C(F)(F)F)C(F)(F)F)cc13)CCC2` was 266 to 268 °C.
Regarding `C=Cc1nc(NC)sc1-c1ccncc1`, the melting point is 110 to 111 °C.
The value for `CC1(C)C=C(c2ccccn2)c2cc(Cl)c(Cl)cc2OC1` was 98 °C; that for `O=C(O)CNC(=O)c1c(O)n(C2CCCCC2)c(=O)n(C2CCCC2)c1=O` was 222 to 224 °C; that for `Cc1cc(-c2nnn(C)n2)cc(C)c1OCCCC(O)c1nccn1C` (configuration not stated) was 151 to 154 °C.
With `O=C1OCC2=C1C(c1ccccc1[N+](=O)[O-])C1=C(COC1=O)N2` the figure was 273 to 274 °C; with `CC1(CCc2ccccc2)OC(=O)CC(=O)O1`, 63 to 65 °C.
The value for `O=c1c2c[nH]c3ccccc3c-2nn1-c1nccs1` was above 350 °C; that for `CCCC(=O)Nc1n[nH]c2cc(-c3ccc([N+](=O)[O-])cc3)ccc12` was 250 °C.
`COc1cccc2c1nc(C(F)F)n2-c1nc(Nc2ccc(NS(C)(=O)=O)nc2)nc(N2CCOCC2)n1` registered a melting point of 302 to 306 °C.
With `CS(=O)(=O)c1ccc(-c2cc(-n3ccc(C(F)(F)F)n3)c3ccccc3n2)cc1` the figure was 194 to 196 °C; with `CN(C)C(=Nc1ccccc1N1CCOCC1)N1CCOCC1`, 126 to 128 °C.
Turning to `COc1ccc(C)cc1NC(=O)Nc1ccc(N2CCN(C(=O)Nc3ccc(CO)cc3Cl)CC2)cc1`, the melting point was in the range of 152 to 155 °C.
The value for `NC(=O)Cc1ccc2[nH]ccc2c1` was 146 to 147 °C; that for `COc1ccc(-c2oc3c(CC=C(C)C)c(OC4OC(CO)C(O)C(O)C4O)cc(O)c3c(=O)c2OC2OC(C)C(O)C(O)C2O)cc1` (configuration not stated) was 231 to 233 °C.
With `Brc1ccc(Nc2ncc(-c3ccccc3)s2)nc1` the figure was above 220 °C.
The value for `Cc1cc(O)c2c3c(oc(=O)c2c1)C(=O)c1c(O)cccc1C3=O` was 236 to 238 °C.
In the case of `O=c1cc(-c2ccc(OC3CCN(C4CCC4)CC3)cc2)cn[nH]1`, the melting point was 296 to 298 °C.
For `COC(=O)Cc1cn(-c2ccccc2)nc1OCc1ccccc1`, the melting point was 74 to 75 °C.
With `Cc1cc(-c2cc(C(F)(F)F)n3ncc(-c4ccnc(CO)c4)c3n2)ccc1Cl` the figure was 220 °C; with `OCc1nc2cc(Br)cnc2[nH]1`, 230 to 233 °C; with `CCOC(=O)c1cc2c(C(F)(F)F)cc(CO)cc2n1C`, 158 to 159 °C.
The value for `c1ccc(COc2ccc3[nH]c(-c4ccccc4)cc3c2)cc1` was 168 to 170 °C; that for `CC(=O)Oc1cc(S(=O)(=O)Oc2ccc(C(=O)c3c(Cc4ccccc4)sc(C)c3C)cc2C2CCCC2)ccc1C(=O)O` was 94 to 96 °C.
As for `CCOC(=O)c1cccc2[nH]c(=O)oc(=O)c12`, the melting point lay within 188 to 190 °C.
The value for `CCOC(=O)c1cn(CC)c2nc(N3CCC(NC(C)=O)C3)c(F)cc2c1=O` (configuration not stated) was 266 to 269 °C.
The value for `O=S(=O)(Nc1cccnc1Nc1ccccc1)c1ccc(Cl)cc1` was 186 to 188 °C.
The value for `CC1Cc2c(c(Cl)cc(F)c2N2C(=O)C3=C(CCCC3)C2=O)O1` (configuration not stated) was 169 to 171 °C; that for `COC(=O)N1C(C)=NC(C)=C(C(=O)NCCCN2CCC(C(=O)OC)(c3ccccc3)CC2)C1c1ccc(F)c(F)c1` (configuration not stated) was 55 to 57 °C.
On to `Cc1ccc(-c2nc3ccccc3o2)cc1F`, for which the melting point was in the range of 121 to 122 °C.
With `NS(=O)(=O)c1ccc2cc(O)c(O)cc2c1` the figure was 218 to 228 °C; with `CC(Cl)(Cl)C(=O)N1CCCC1C(=O)O` (configuration not stated), 61 to 62 °C; with `O=C(Nc1ccccc1)c1ccccc1Nc1ncnc2[nH]cc(C(=O)c3ccccc3)c12`, above 300 °C.
The value for `O=C(NCC1CCCCCC1)NCC1CCCCCC1` was 106 to 108 °C; that for `CCCCCc1ccc(-c2ccc(Cl)s2)cn1` was 32 °C.
For the compound `CC1(C)CC(=O)CC(=O)N1`, the melting point is 183 to 184 °C.
`NC1=Nc2ncccc2OC1` registered a melting point of 173 to 174 °C.
With `Cc1ccc(-c2c(-c3ccc(S(C)(=O)=O)cc3)cnn(-c3cccc(Cl)c3)c2=O)cc1` the figure was 222 to 224 °C.
`CNC(=O)C(C)(C)C(O)(Cn1cncn1)c1ccc(Cl)cc1Cl` (configuration not stated) showed a melting point of 145 to 146 °C.
The value for `C/C(=C\c1ccc(OC(C)C)cc1Oc1ncc(C(F)(F)F)cc1Cl)C(=O)NS(=O)(=O)NCCc1ccccc1` was 147 to 148 °C; that for `COc1cc(-c2nc(N)sc2CSC2CCCCC2)c(OC)cc1C` was 143 to 144 °C.
With `CCCCCN(CCc1c[nH]c2ccccc12)C(=O)CCCC(=O)OC`, the melting point lay in the range of 70 to 71 °C.
The value for `COc1ccc(CN2CCC(c3cn(CCc4ccsc4)c4cc(F)ccc34)CC2)cc1C(=O)O` was 228 to 229 °C.
With `COc1ccc(S(=O)(=O)N2CCc3[nH]c4c(cnc5cc(Cl)ccc54)c3C2)cc1` the figure was above 250 °C; with `CC(=O)NC1(c2ccccc2)CC1`, 94 to 95 °C.
The value for `COc1cc2nc(N3CCN(C(=O)C4=CCCC4)CC3)nc(N)c2cc1OC` was 256 to 258 °C; that for `O=C1c2ccccc2OCC1SC(=O)C(F)(F)F` (configuration not stated) was 75 to 79 °C; that for `CC(=O)SCC(C)C(=O)NC(CCCNC(=N)N)C(=O)O` (configuration not stated) was 133 °C.
Compound `Cc1c(Cl)c(Oc2c(Cl)cc(C(F)(F)F)cc2Cl)nn1C(=O)NCCCl` returned a melting point of 141 to 143 °C.
The value for `CC12CCC3c4ccc(O)cc4CCC3C1CCC2=CF` (configuration not stated) was 125 to 129 °C; that for `COc1cc2c(CCN3CCN(c4cccc(Cl)c4C)CC3)nn(Cc3c[nH]cn3)c2cc1OC` was 143 to 144 °C; that for `CCCCCC(=O)CCC1CCC(CCCCCCCC(=O)O)O1` (configuration not stated) was 26 to 28 °C.
`CN(C)C=Nc1nc2ncn(C)c(=S)n2n1` displayed a melting point above 300 °C.
The value for `N#Cc1cnc2sc(-c3ccccc3)cc2c1Cl` was 202 to 204 °C; that for `CC(=NO)C(C)(C)NN(C)CCNC(C)(C)C(Cn1ccnc1[N+](=O)[O-])=NO` was 132 to 134 °C; that for `CCCCCCCCCCCCCCCC1CCCC(=O)C1` (configuration not stated) was 41 °C.
With `O=C(O)c1cnn(-c2ccc(Cl)cc2)c1C1CC1`, the melting point fell in the range of 186 to 187 °C.
As for `CCOC(=O)c1cnc(N(C)C)nc1`, the melting point was found to be 65 °C.
`O=C(c1ccccc1Cl)c1cc(Cl)ccc1-n1ccnc1` showed a melting point of 146 to 148 °C.
The value for `COc1cccc2cc(C(=O)c3ccc(Cl)c(S(=O)(=O)Cl)c3)oc12` was 143 to 145 °C.
Take `CC(C)CNC(=O)[C@H]1C[C@@H](S(=O)(=O)c2ccc([N+](=O)[O-])cc2)[C@@H](c2ccccc2F)N1` (racemic): the melting point came to 218 °C.
The value for `NC(=S)Nc1ccccc1-c1ccccc1F` was 175 to 177 °C.
